The test system of one data set is Ramos cells. The data set is classed as cell-based. Conditions: FIG. 7, free doxorubicin at 100 nM-1 μM, HDL-Andrographolide NP at 5 nM.
The conditions of data set [1]: clinical use; cited from earlier work.
A further data set deals with H9c2 cells. The conditions noted are these: 48- and 72-hour treatment, same concentrations as lymphoma lines.
Data set [2] concerns LNCaP adenocarcinoma cell lines. Put plainly: Fluorescence microscopy of doxorubicin uptake. The data set is classed as cell-based, human. Conditions: 18 hours after treatment. As to the method:
To further confirm delivery of doxorubicin to cancer cells with HDL-NP, LNCaP adenocarcinoma cell lines were assessed by fluorescence microscopy after treatment with free doxorubicin, Dox-HDL-NP, and HDL-NP.

Description for H9c2 cells: For adherent lines (LNCaP, MDA-MB-231, and H9c2), cells were deposited onto 96-well plates at a concentration of 5×10^4 cells/mL, 24 hours prior to treatment. Cells were then treated, incubated, and assessed as described above for the suspension cells.
The effects of Dox-HDL-NP and free doxorubicin in H9c2 cardiomyoblasts, a rat-derived cardiomyocyte cell line that has been used extensively in mechanistic studies of doxorubicin toxicity in heart cells, have been studied.
Description for Ramos cells: For suspension cell lines (Ramos, Jurkat, and SUDHL4), confluent cells were deposited onto 96-well plates at 1×10^5 cells/mL, then treated with either: 1-10 nM HDL NP, 1-10 nM HDL-drug NP, 10 nM-1 μM free drug, or 10 nM human HDL. All solutions were in 1% PBS, in a total volume of 100 μL. Cells were incubated for 48 hours with the treatment, then assessed for viability using a 3-(4,5-dimethylthiazol-2-yl)-5-(3-carboxymethoxyphenyl)-2-(4-sulfo-phenyl)-2H-tetrazolium (MTS) cell proliferation assay. 20 μL of the MTS solution (G1112; Promega) was added to each well; absorbance at 490 nm was measured immediately and after 90 min. Survival for a sample was presented as absorbance for that sample at 90 min, compared to absorbance for the non-treated control at 90 min. Since metabolically active cells reduce MTS, lower absorbance indicates cell death.
Cytotoxicity of the HDL-Doxorobucin NPs was assessed by incubating with lymphoma cells in culture for 48-72 hours, and measuring cell viability by a 3-(4,5-dimethylthiazol-2-yl)-5-(3-carboxymethoxyphenyl)-2-(4-sulfophenyl)-2H-tetrazolium (MTS) assay. […]
For suspension cell lines (Ramos and SUDHL4), 90 μl confluent cells were deposited into 96-well plates at 1×10^5 cells/mL, then treated with 10 μl of either: 1-10 nM HDL NP, 1-10 nM HDL-drug NP, 10 nM-1 μM free drug, 10 nM human HDL, or PBS. […] Cells were incubated for 48 hours with the treatment, and then assessed for viability using a 3-(4,5-dimethylthiazol-2-yl)-5-(3-carboxymethoxyphenyl)-2-(4-sulfo-phenyl)-2H-tetrazolium (MTS) cell proliferation assay. Twenty μL of the MTS solution (G1112; Promega) was added to each well; absorbance at 490 nm was measured immediately and after 90 minutes. […] Cell viability was calculated according to the following formula: Cell viability=(OD490, 90 min(sample)−OD490, 90 min(0% survival control))/(OD490, 90 min(100% survival control)−OD490, 90 min(0% survival control))×100%
Cytotoxicity of the Dox-HDL-NPs was assessed by incubating Dox-HDL-NP, HDL-NP, or free doxorubicin at varying doses with different lymphoma cell lines. […]

As to `C=C1CC[C@@H]2[C@](C)(CO)[C@H](O)CC[C@@]2(C)[C@@H]1C/C=C1/C(=O)OC[C@H]1O` [Andrographolide], in the data set with Ramos cells, the killing effect entry was “slight protective effect on cells”.

Turning to `CC[C@]1(O)C[C@H]2CN(CCc3c([nH]c4ccccc34)[C@@](C(=O)OC)(c3cc4c(cc3OC)N(C=O)[C@H]3[C@@](O)(C(=O)OC)[C@H](OC(C)=O)[C@]5(CC)C=CCN6CC[C@]43[C@@H]65)C2)C1` [Vincristine], the killing effect entry in the data set with Ramos cells is reported as “kills with comparable efficiency to the bare HDL NP”.

As to `COc1cccc2c1C(=O)c1c(O)c3c(c(O)c1C2=O)C[C@@](O)(C(=O)CO)C[C@@H]3O[C@H]1C[C@H](N)[C@H](O)[C@H](C)O1` [doxorubicin], the “cumulative dose above which cardiotoxicity typically occurs” value in data set [1] is “exceeds 450 mg/m^2 of body surface area”. Further, in the data set on H9c2 cells, the “cell viability in cardiomyoblasts” value was “significant reduction in viability”. In the data set on Ramos cells, the killing effect result is on record as “substantial killing effect”. The “doxorubicin fluorescence in cells” value in data set [2] is listed as “fluorescence was clearly seen”.

The record behind these values is US10568898B2, “Lipophilic nanoparticles for drug delivery” (priority 2013, dated 2020).
